Details: Liquid, Vibrating tube method

CCCC(=O)OCC(COC(=O)CCC)(COC(=O)CCC)COC(=O)CCC [pentaerythritol tetrabutyrate]
Details | mass density [kg/m3]
323.14 K, 26626 kPa | 1043
323.14 K, 26670 kPa | 1042.8
323.14 K, 26714 kPa | 1042.8
323.14 K, 26767 kPa | 1043
323.14 K, 26810 kPa | 1043
323.14 K, 26863 kPa | 1043
323.14 K, 26908 kPa | 1043.1
323.14 K, 26952 kPa | 1043.1
323.14 K, 26996 kPa | 1043.1
323.14 K, 27582 kPa | 1043.5
323.14 K, 27638 kPa | 1043.5
323.14 K, 27684 kPa | 1043.6
323.14 K, 27740 kPa | 1043.6
323.14 K, 27788 kPa | 1043.6
323.14 K, 27834 kPa | 1043.6
323.14 K, 27946 kPa | 1043.8
323.14 K, 28044 kPa | 1043.9
323.14 K, 28300 kPa | 1044
323.14 K, 28359 kPa | 1044
323.14 K, 28792 kPa | 1044.3
323.14 K, 28843 kPa | 1044.3
323.14 K, 28902 kPa | 1044.3
323.14 K, 28941 kPa | 1044.3
323.14 K, 29012 kPa | 1044.3
323.14 K, 29875 kPa | 1044.9
323.14 K, 29913 kPa | 1045
323.14 K, 29948 kPa | 1045.1
323.14 K, 29992 kPa | 1045
323.14 K, 30269 kPa | 1045.3
323.14 K, 30315 kPa | 1045.2
323.14 K, 30353 kPa | 1045.4
323.14 K, 30391 kPa | 1045.3
323.14 K, 30431 kPa | 1045.3
323.14 K, 30476 kPa | 1045.2
323.14 K, 30514 kPa | 1045.3
323.14 K, 32076 kPa | 1046.4
323.14 K, 32110 kPa | 1046.4
323.14 K, 32957 kPa | 1046.8
323.14 K, 33000 kPa | 1046.9
323.14 K, 33035 kPa | 1046.8
323.14 K, 33078 kPa | 1046.9
323.14 K, 33115 kPa | 1046.9
323.14 K, 33350 kPa | 1047
323.14 K, 33751 kPa | 1047.3
323.14 K, 33878 kPa | 1047.3
323.14 K, 33919 kPa | 1047.4
323.14 K, 33970 kPa | 1047.4
323.15 K, 3349 kPa | 1027.1
323.15 K, 3467.5 kPa | 1027.3
323.15 K, 3496.8 kPa | 1027.3
323.15 K, 3562.1 kPa | 1027.3
323.15 K, 5277.4 kPa | 1028.8
323.15 K, 5278.3 kPa | 1028.7
323.15 K, 5281.4 kPa | 1028.8
323.15 K, 5284.5 kPa | 1028.8
323.15 K, 5287 kPa | 1028.7
323.15 K, 5288.9 kPa | 1028.7
323.15 K, 5289.7 kPa | 1028.8
323.15 K, 5290.8 kPa | 1028.8
323.15 K, 5291.3 kPa | 1028.8
323.15 K, 5291.6 kPa | 1028.8
323.15 K, 5292 kPa | 1028.8
323.15 K, 5292.5 kPa | 1028.8
323.15 K, 5292.8 kPa | 1028.8
323.15 K, 5293.4 kPa | 1028.7
323.15 K, 5293.7 kPa | 1028.9
323.15 K, 5293.9 kPa | 1028.8
323.15 K, 5294 kPa | 1028.7
323.15 K, 5294.2 kPa | 1028.9
323.15 K, 5295.1 kPa | 1028.9
323.15 K, 5295.9 kPa | 1029
323.15 K, 5296.1 kPa | 1028.7
323.15 K, 5296.6 kPa | 1028.7
323.15 K, 5297 kPa | 1028.8
323.15 K, 5297.2 kPa | 1028.8
323.15 K, 5297.3 kPa | 1028.9
323.15 K, 5297.5 kPa | 1028.8
323.15 K, 5297.8 kPa | 1028.8
323.15 K, 5324.7 kPa | 1028.9
323.15 K, 5344.4 kPa | 1028.9
323.15 K, 5347.8 kPa | 1028.8
323.15 K, 5370.7 kPa | 1028.8
323.15 K, 5375.9 kPa | 1028.8
323.15 K, 5394.4 kPa | 1028.9
323.15 K, 5418.8 kPa | 1029
323.15 K, 5422.4 kPa | 1028.9
323.15 K, 5445.4 kPa | 1028.9
323.15 K, 5446.8 kPa | 1028.9
323.15 K, 5456 kPa | 1028.9
323.15 K, 5465.5 kPa | 1028.9
323.15 K, 5470.8 kPa | 1029
323.15 K, 5493.7 kPa | 1028.9
323.15 K, 5495.4 kPa | 1028.9
323.15 K, 5499.9 kPa | 1029
323.15 K, 5505.6 kPa | 1028.9
323.15 K, 5511.7 kPa | 1028.8
323.15 K, 5524.8 kPa | 1029
323.15 K, 5529.5 kPa | 1029
323.15 K, 5540.8 kPa | 1028.9
323.15 K, 5549.5 kPa | 1029
323.15 K, 5554.5 kPa | 1029
323.15 K, 5560.3 kPa | 1028.9
323.15 K, 5567.9 kPa | 1028.9
323.15 K, 5573.4 kPa | 1028.9
323.15 K, 5575 kPa | 1029
323.15 K, 5578 kPa | 1029
323.15 K, 5582.5 kPa | 1029
323.15 K, 5586.4 kPa | 1028.9
323.15 K, 5590.4 kPa | 1029.1
323.15 K, 5594.2 kPa | 1029
323.15 K, 5605.6 kPa | 1029
323.15 K, 5630.8 kPa | 1029
323.15 K, 5657.1 kPa | 1029.1
323.15 K, 5683.6 kPa | 1029.1
323.15 K, 5710.2 kPa | 1029.1
323.15 K, 5742 kPa | 1029.1
323.15 K, 5769.2 kPa | 1029.2
323.15 K, 5797 kPa | 1029.2
323.15 K, 5824.3 kPa | 1029.2
323.15 K, 5857.7 kPa | 1029.2
323.15 K, 5886.4 kPa | 1029.2
323.15 K, 5945.6 kPa | 1029.2
323.15 K, 5970.4 kPa | 1029.2
323.15 K, 6001.7 kPa | 1029.3
323.15 K, 6023.4 kPa | 1029.3
323.15 K, 6053.9 kPa | 1029.4
323.15 K, 6080.4 kPa | 1029.4
323.15 K, 6107 kPa | 1029.4
323.15 K, 6138.8 kPa | 1029.4
323.15 K, 6163.7 kPa | 1029.4
323.15 K, 6187.1 kPa | 1029.4
323.15 K, 6215.2 kPa | 1029.6
323.15 K, 6240.1 kPa | 1029.4
323.15 K, 6265 kPa | 1029.5
323.15 K, 6287.3 kPa | 1029.5
323.15 K, 6301.7 kPa | 1029.5
323.15 K, 6311 kPa | 1029.5
323.15 K, 6319.5 kPa | 1029.4
323.15 K, 6327.5 kPa | 1029.6
323.15 K, 6345.8 kPa | 1029.6
323.15 K, 6372.1 kPa | 1029.6
323.15 K, 6398.4 kPa | 1029.7
323.15 K, 6423.8 kPa | 1029.8
323.15 K, 6456.6 kPa | 1029.6
323.15 K, 6483.4 kPa | 1029.6
323.15 K, 6511.5 kPa | 1029.6
